From patent US10604489B2, “Compounds for the treatment of pain” (priority 2018, dated 2020)
pEC50, pKi: −log10 of the molar value. Where a name gives a salt, the structure may show the parent alone.

Legend:
[1] = target: μ-receptor (Homo sapiens (Human), UniProt P35372); test: Receptor binding, competitive displacement of [3H]DAMGO; conditions: 0.25 nM [3H]DAMGO, CHO cell membrane protein, 60 min at 25° C.
Experimental: The Ki (binding affinity) for μ-receptor was determined with a previously described method using a competitive displacement assay (Neumeyer et al., J. Med. Chem., v. 46, p. 5162-5170, 2003). Membrane protein from CHO (Chinese Hamster Ovarian) cells that stably expressed one type of the cloned human opioid receptor were incubated with 12 different concentrations of the compound in the presence of 0.25 nM [3H]DAMGO, 0.2 nM [3H]naltrindole or 1 nM [3H]U69,593 in a final volume of 1 mL of 50 mM Tris-HCl, pH 7.5 at 25° C. Incubation times of 60 min were used for [3H]DAMGO and [3H]U69,593. Because of a slower association of [3H]naltrindole with the receptor, a 3 h incubation was used with this radioligand. Samples incubated with [3H]naltrindole also contained 10 mM MgCl2 and 0.5 mM phenylmethylsulfonyl fluoride. Nonspecific binding was measured by inclusion of 10 μM naloxone. The binding was terminated by filtering the samples through Schleicher & Schuell No. 32 glass fiber filters using a Brandel 48-well cell harvester. The filters were subsequently washed three times with 3 mL of cold 50 mM Tris-HCl, pH 7.5, and were counted in 2 mL Ecoscint A scintillation fluid. For [3H]naltrindole and [3H]U69,593 binding, the filters were soaked in 0.1% polyethylenimine for at least 60 min before use. IC50 values will be calculated by least squares fit to a logarithm-probit analysis. Ki values of unlabelled compounds were calculated from the equation Ki=(IC50)/1+S where S=(concentration of radioligand)/(Kd of radioligand) (Cheng and Prusoff, Biochemical Pharmacology, v. 22, p. 3099-3108, 1973).

[2] = target: human μ opioid receptor (Homo sapiens (Human), UniProt P35372); test: Functional activity ([35S]GTPγS binding); assay type: biochemical; conditions: [35S]GTPγS 0.080 nM, CHO cell membranes, 60 min at 30° C., filtration
Experimental: The [^35S]GTPγS assay measures the functional properties of a compound by quantifying the level of G-protein activation following agonist binding in studies using stably transfected cells, and is considered to be a measure of the efficacy of a compound. Membranes from CHO (Chinese Hamster Ovary) cells that stably expressed one type of the cloned human opioid receptor human were used in the experiments. In a final volume of 0.5 mL, 12 different concentrations of each test compound were incubated with 7.5 μg of CHO cell membranes that stably expressed the human p opioid receptor. The assay buffer consisted of 50 mM Tris-HCl, pH 7.4, 3 mM MgCl2, 0.2 mM EGTA, 3 μM GDP, and 100 mM NaCl. The final concentration of [35S]GTPγS was 0.080 nM. Nonspecific binding was measured by inclusion of 10 μM GTPγS. Binding was initiated by the addition of the membranes. After an incubation of 60 min at 30° C., the samples were filtered through Schleicher & Schuell No. 32 glass fiber filters. The filters were washed three times with cold 50 mM Tris-HCl, pH 7.5, and were counted in 2 mL of Ecoscint scintillation fluid.

| Structure (SMILES) | pKi [1] | pEC50 [2] |
| --- | --- | --- |
| COC1(c2cccc(C(N)=O)c2O)C2CCCC1CN(C)C2 [Compound 49, 2-hydroxy-3-((1R,5S,9r)-9-methoxy-3-methyl-3-azabicyclo[3.3.1]nonan-9-yl)benzamide hydrochloride] | > 9.00 | > 8.00 |
| COC1(c2cccc(C(N)=O)c2)C2CCCC1CN(C1COC1)C2 [Compound 50, 3-((1R,5S,9r)-9-methoxy-3-(oxetan-3-yl)-3-azabicyclo[3.3.1]nonan-9-yl)benzamide (S)-2-hydroxysuccinate] | 8.30 to 9.00 | 7.12 to 8.00 |
| COC1(c2cccc(C(N)=O)c2)C2CCCC1CN(CC1COC1)C2 [Compound 51, 3-((1R,5S,9r)-9-methoxy-3-(oxetan-3-ylmethyl)-3-azabicyclo[3.3.1]nonan-9-yl)benzamide (S)-2-hydroxysuccinate] | > 9.00 | 7.12 to 8.00 |
| COC1(c2ccnc(C(N)=O)c2F)C2CCCC1CN(C)C2 [Compound 53, 3-fluoro-4-((1R,5S,9r)-9-methoxy-3-methyl-3-azabicyclo[3.3.1]nonan-9-yl)picolinamide hydrochloride] | 8.30 to 9.00 | < 7.12 |
| Cl.[2H]C([2H])([2H])N1CC2CCCC(C1)C2(OC)c1cccc(C(N)=O)c1 [Compound 54, 3-((1R,5S,9r)-9-methoxy-3-(trideuteriomethyl)-3-azabicyclo[3.3.1]nonan-9-yl)benzamide hydrochloride] | > 9.00 | > 8.00 |
| COC1(c2ccnc(C(N)=O)c2)C2CCCC1CN(C1CCCC1)C2 [Compound 55, 4-((1R,5S,9r)-3-cyclopentyl-9-methoxy-3-azabicyclo[3.3.1]nonan-9-yl)picolinamide hydrochloride] | > 9.00 | 7.12 to 8.00 |
| COC1(c2ccnc(C(N)=O)c2F)C2CCCC1CN(C1CC1)C2 [Compound 57, 4-((1R,5S,9r)-3-cyclopropyl-9-methoxy-3-azabicyclo[3.3.1]nonan-9-yl)-3-fluoropicolinamide hydrochloride] | < 8.30 | < 7.12 |
| COC1(c2cccc(C(N)=O)c2)C2CCCC1CN(CC1(O)Cc3ccccc3C1)C2 [Compound 58, 3-((1R,5S,9r)-3-((2-hydroxy-2,3-dihydro-1H-inden-2-yl)methyl)-9-methoxy-3-azabicyclo[3.3.1]nonan-9-yl)benzamide hydrochloride] | > 9.00 | > 8.00 |
| COC1(c2cccc(C(N)=O)c2)C2CCCC1CN(Cc1nc3ccccc3[nH]1)C2 [Compound 64, 3-((1R,5S,9r)-3-((1H-benzo[d]imidazol-2-yl)methyl)-9-methoxy-3-azabicyclo[3.3.1]nonan-9-yl)benzamide hydrochloride] | > 9.00 | > 8.00 |
| CCN1CC2CCCC(C1)C2(OC)c1ccnc(C(N)=O)c1 [Compound 66, 4-((1R,5S,9r)-3-ethyl-9-methoxy-3-azabicyclo[3.3.1]nonan-9-yl)picolinamide hydrochloride] | 8.30 to 9.00 | 7.12 to 8.00 |
| COC1(c2ccnc(C(N)=O)c2)C2CCCC1CN(Cc1ccccn1)C2 [Compound 67, 4-((1R,5S,9r)-9-methoxy-3-(pyridin-2-ylmethyl)-3-azabicyclo[3.3.1]nonan-9-yl)picolinamide dihydrochloride] | 8.30 to 9.00 | 7.12 to 8.00 |
| COC1(c2ccnc(C(N)=O)c2)C2CCCC1CN(Cc1cccnc1)C2 [Compound 68, 4-((1R,5S,9r)-9-methoxy-3-(pyridin-3-ylmethyl)-3-azabicyclo[3.3.1]nonan-9-yl)picolinamide dihydrochloride] | 8.30 to 9.00 | 7.12 to 8.00 |
| COC1(c2ccnc(C(N)=O)c2)C2CCCC1CN(Cc1ccncc1)C2 [Compound 69, 4-((1R,5S,9r)-9-methoxy-3-(pyridin-4-ylmethyl)-3-azabicyclo[3.3.1]nonan-9-yl)picolinamide hydrochloride] | < 8.30 | < 7.12 |
| COC1(c2ccc(C(N)=O)s2)C2CCCC1CN(C1CCOCC1)C2 [Compound 71, 5-((1R,5S,9r)-9-methoxy-3-(tetrahydro-2H-pyran-4-yl)-3-azabicyclo[3.3.1]nonan-9-yl)thiophene-2-carboxamide hydrochloride] | < 8.30 | < 7.12 |
| COC1(c2ccnc(C(N)=O)c2)C2CCCC1CN(CC1(O)CC1)C2 [Compound 72, 4-((1R,5S,9r)-3-((1-hydroxycyclopropyl)methyl)-9-methoxy-3-azabicyclo[3.3.1]nonan-9-yl)picolinamide hydrochloride] | 8.30 to 9.00 | < 7.12 |
| COC1(c2ccnc(C(N)=O)c2)C2CCCC1CN(CC1(O)Cc3ccccc3C1)C2 [Compound 73, 4-((1R,5S,9r)-3-((2-hydroxy-2,3-dihydro-1H-inden-2-yl)methyl)-9-methoxy-3-azabicyclo[3.3.1]nonan-9-yl)picolinamide hydrochloride] | > 9.00 | > 8.00 |
| COC1(c2ccnc(C(N)=O)c2)C2CCCC1CN(C1CCOC1)C2 [Compound 74, 4-((1R,5S,9r)-9-methoxy-3-(tetrahydrofuran-3-yl)-3-azabicyclo[3.3.1]nonan-9-yl)picolinamide hydrochloride] | 8.30 to 9.00 | 7.12 to 8.00 |
| COC1(c2cccc(C(N)=O)c2)C2CCCC1CN(Cc1cnn[nH]1)C2 [Compound 75, 3-((1R,5S,9r)-3-((1H-1,2,3-triazol-5-yl)methyl)-9-methoxy-3-azabicyclo[3.3.1]nonan-9-yl)benzamide hydrochloride] | > 9.00 | > 8.00 |
| COC1(c2ccnc(C(N)=O)c2)C2CCCC1CN(C(C)C)C2 [Compound 76, 4-((1R,5S,9r)-3-isopropyl-9-methoxy-3-azabicyclo[3.3.1]nonan-9-yl)picolinamide hydrochloride] | 8.30 to 9.00 | 7.12 to 8.00 |
| COC1(c2ccnc(C(N)=O)c2)C2CCCC1CN(C1CC3(CCC3)C1)C2 [Compound 77, 4-((1R,5S,9r)-9-methoxy-3-(spiro[3.3]heptan-2-yl)-3-azabicyclo[3.3.1]nonan-9-yl)picolinamide hydrochloride] | > 9.00 | > 8.00 |
| COC1(c2ccnc(C(N)=O)c2)C2CCCC1CN([C@@H]1CCOC1)C2 (stereo partly drawn) [Compound 78, 4-((1R,5S,9s)-9-methoxy-3-((S)-tetrahydrofuran-3-yl)-3-azabicyclo[3.3.1]nonan-9-yl)picolinamide hydrochloride] | 8.30 to 9.00 | 7.12 to 8.00 |
| COC1(c2ccnc(C(N)=O)c2)C2CCCC1CN(C1CC3(COC3)C1)C2 [Compound 81, 4-((1R,5S,9r)-9-methoxy-3-(2-oxaspiro[3.3]heptan-6-yl)-3-azabicyclo[3.3.1]nonan-9-yl)picolinamide (S)-2-hydroxysuccinate] | > 9.00 | 7.12 to 8.00 |
| COC1(c2ccnc(C(N)=O)c2)C2CCCC1CN(C1CC(F)(F)C1)C2 [Compound 82, 4-((1R,5S,9r)-3-(3,3-difluorocyclobutyl)-9-methoxy-3-azabicyclo[3.3.1]nonan-9-yl)picolinamide hydrochloride] | 8.30 to 9.00 | 7.12 to 8.00 |
| COCCN1CC2CCCC(C1)C2(OC)c1ccnc(C(N)=O)c1 [Compound 83, 4-((1R,5S,9r)-9-methoxy-3-(2-methoxyethyl)-3-azabicyclo[3.3.1]nonan-9-yl)picolinamide hydrochloride] | 8.30 to 9.00 | 7.12 to 8.00 |
| COC1(c2ccnc(C(N)=O)c2)C2CCCC1CN(CCN1CCNC1=O)C2 [Compound 85, 4-((1R,5S,9r)-9-methoxy-3-(2-(2-oxoimidazolidin-1-yl)ethyl)-3-azabicyclo[3.3.1]nonan-9-yl)picolinamide hydrochloride] | 8.30 to 9.00 | 7.12 to 8.00 |
| COC1(c2ccnc(C(N)=O)c2)C2CCCC1CN(CCC1CC1)C2 [Compound 86, 4-((1R,5S,9r)-3-(2-cyclopropylethyl)-9-methoxy-3-azabicyclo[3.3.1]nonan-9-yl)picolinamide hydrochloride] | 8.30 to 9.00 | 7.12 to 8.00 |
| COC1(c2ccnc(C(N)=O)c2)C2CCCC1CN(C1CC(c3ccccc3)C1)C2 [Compound 87, 4-((1R,5S,9R)-9-methoxy-3-((1r,3R)-3-phenylcyclobutyl)-3-azabicyclo[3.3.1]nonan-9-yl)picolinamide hydrochloride] | > 9.00 | > 8.00 |
